Assay results: PubChem BioAssay AID1259407 (Chemical Carcinogenesis Research Information System (CCRIS), 2018)
Calls of active or inactive are those of the source. No rule for the calls is given here.

Tested on: CCRIS mutagenicity, Ames/micronucleus/aberration tests
Assay: CCRIS mutagenicity studies
[1] = Test System: AMES SALMONELLA TYPHIMURIUM, Strain/Indicator: TA97, Metabolic Activation: NONE, Method: STANDARD PLATE
[2] = Test System: AMES SALMONELLA TYPHIMURIUM, Strain/Indicator: TA97, Metabolic Activation: S-9, Method: STANDARD PLATE
[3] = Test System: AMES SALMONELLA TYPHIMURIUM, Strain/Indicator: TA98, Metabolic Activation: NONE, Method: STANDARD PLATE
[4] = Test System: AMES SALMONELLA TYPHIMURIUM, Strain/Indicator: TA98, Metabolic Activation: S-9, Method: STANDARD PLATE
[5] = Test System: AMES SALMONELLA TYPHIMURIUM, Strain/Indicator: TA100, Metabolic Activation: NONE, Method: STANDARD PLATE
[6] = Test System: AMES SALMONELLA TYPHIMURIUM, Strain/Indicator: TA100, Metabolic Activation: S-9, Method: STANDARD PLATE
[7] = Test System: AMES SALMONELLA TYPHIMURIUM, Strain/Indicator: TA102, Metabolic Activation: NONE, Method: STANDARD PLATE
[8] = Test System: AMES SALMONELLA TYPHIMURIUM, Strain/Indicator: TA102, Metabolic Activation: S-9, Method: STANDARD PLATE
[9] = Test System: E.COLI, Strain/Indicator: WP2 (PKM101), Metabolic Activation: NONE, Method: STANDARD PLATE
[10] = Test System: E.COLI, Strain/Indicator: WP2 (PKM101), Metabolic Activation: S-9, Method: STANDARD PLATE
[11] = Test System: AMES SALMONELLA TYPHIMURIUM, Strain/Indicator: TA100, Metabolic Activation: NONE, Method: PREINCUBATION

With `CC(C)COC(=O)CCCCC(=O)OCC(C)C` as the compound, how does the mutagenic call [1] read?
The mutagenic call was “inactive; negative”.

And the mutagenic call [2]?
The mutagenic call was “inactive; negative”.

What about the mutagenic call [3] of the same compound?
Its mutagenic call is “inactive; negative”.

What about the mutagenic call [4] of the same compound?
The mutagenic call was “inactive; negative”.

And the mutagenic call [5]?
The mutagenic call was “inactive; negative”.

And the mutagenic call [6]?
The mutagenic call was “inactive; negative”.

And the mutagenic call [7]?
Its mutagenic call is “inactive; negative”.

And the mutagenic call [8]?
Its mutagenic call is “inactive; negative”.

What about the mutagenic call [9] of the same compound?
The mutagenic call was “inactive; negative”.

And the mutagenic call [10]?
Its mutagenic call is “inactive; negative”.

Which mutagenic call [5] does the source give for `O=c1[nH]c(=O)n([C@H]2C[C@H](O)[C@@H](CO)O2)cc1COO` here?
The mutagenic call was “active; positive”.

What about the mutagenic call [7] of the same compound?
The mutagenic call was “active; positive”.

`O=C(N=c1sn(C(=O)c2ccccc2[N+](=O)[O-])c2ccc([N+](=O)[O-])cc12)c1ccccc1[N+](=O)[O-]` was tested. Which mutagenic call [6] did it give?
The mutagenic call was “active; positive”.

`C=C1C[C@@]23CC[C@H]4[C@@](C)(CCC[C@@]4(C)C(=O)O[C@@H]4O[C@H](CO)[C@@H](O)[C@H](O)[C@H]4O)[C@@H]2CC[C@]1(O[C@@H]1O[C@H](CO)[C@@H](O)[C@H](O)[C@H]1O[C@@H]1O[C@H](CO)[C@@H](O)[C@H](O)[C@H]1O)C3` was tested. Which mutagenic call (Test System: AMES SALMONELLA TYPHIMURIUM, Strain/Indicator: TA97, Metabolic Activation: NONE, Method: PREINCUBATION) did it give?
The mutagenic call was “inactive; negative”.

What about the mutagenic call (Test System: AMES SALMONELLA TYPHIMURIUM, Strain/Indicator: TA97, Metabolic Activation: RAT, LIVER, S-9, PCB, Method: PREINCUBATION) of the same compound?
The mutagenic call was “inactive; negative”.

What about the mutagenic call (Test System: AMES SALMONELLA TYPHIMURIUM, Strain/Indicator: TA98, Metabolic Activation: RAT, LIVER, S-9, PCB, Method: PREINCUBATION) of the same compound?
Its mutagenic call is “inactive; negative”.

And the mutagenic call (Test System: AMES SALMONELLA TYPHIMURIUM, Strain/Indicator: TA98, Metabolic Activation: RAT, LIVER, S-9, SODIUM PHENOBARBITAL AND 5,6-BENZOFLAVONE, Method: PREINCUBATION)?
The mutagenic call was “active; positive”.

And the mutagenic call [11]?
The mutagenic call was “inactive; negative”.

And the mutagenic call (Test System: AMES SALMONELLA TYPHIMURIUM, Strain/Indicator: TA100, Metabolic Activation: RAT, LIVER, S-9, PCB, Method: PREINCUBATION)?
Its mutagenic call is “inactive; negative”.

And the mutagenic call (Test System: AMES SALMONELLA TYPHIMURIUM, Strain/Indicator: TA100, Metabolic Activation: RAT, LIVER, S-9, SODIUM PHENOBARBITAL AND 5,6-BENZOFLAVONE, Method: PREINCUBATION)?
Its mutagenic call is “inactive; negative”.

And the mutagenic call (Test System: AMES SALMONELLA TYPHIMURIUM, Strain/Indicator: TA102, Metabolic Activation: NONE, Method: PREINCUBATION)?
Its mutagenic call is “inactive; negative”.

And the mutagenic call (Test System: AMES SALMONELLA TYPHIMURIUM, Strain/Indicator: TA102, Metabolic Activation: RAT, LIVER, S-9, PCB, Method: PREINCUBATION)?
Its mutagenic call is “inactive; negative”.

And the mutagenic call (Test System: AMES SALMONELLA TYPHIMURIUM, Strain/Indicator: TA104, Metabolic Activation: NONE, Method: PREINCUBATION)?
The mutagenic call was “inactive; negative”.

What about the mutagenic call (Test System: AMES SALMONELLA TYPHIMURIUM, Strain/Indicator: TA104, Metabolic Activation: RAT, LIVER, S-9, PCB, Method: PREINCUBATION) of the same compound?
Its mutagenic call is “inactive; negative”.

And the mutagenic call (Test System: AMES SALMONELLA TYPHIMURIUM, Strain/Indicator: TM677, Metabolic Activation: RAT, LIVER, S-9, AROCLOR 1254, Method: PREINCUBATION)?
Its mutagenic call is “inactive; negative”.

Which mutagenic call [3] does the source give for `C/C=C/C=C/CCCCCCCOC(C)=O` here?
Its mutagenic call is “inactive; negative”.

What about the mutagenic call (Test System: AMES SALMONELLA TYPHIMURIUM, Strain/Indicator: TA98, Metabolic Activation: RAT, LIVER, S-9, Method: STANDARD PLATE) of the same compound?
Its mutagenic call is “inactive; negative”.

And the mutagenic call [5]?
Its mutagenic call is “inactive; negative”.

And the mutagenic call (Test System: AMES SALMONELLA TYPHIMURIUM, Strain/Indicator: TA100, Metabolic Activation: RAT, LIVER, S-9, Method: STANDARD PLATE)?
Its mutagenic call is “inactive; negative”.

And the mutagenic call [7]?
The mutagenic call was “inactive; negative”.

And the mutagenic call (Test System: AMES SALMONELLA TYPHIMURIUM, Strain/Indicator: TA102, Metabolic Activation: RAT, LIVER, S-9, Method: STANDARD PLATE)?
The mutagenic call was “inactive; negative”.

With `O=C1C=C(Cl)C(=O)C1(Cl)Cl` as the compound, how does the mutagenic call [5] read?
Its mutagenic call is “active; positive”.

Which mutagenic call [1] does the source give for `COc1ccc(O)cc1` here?
The mutagenic call was “inactive; negative”.

What about the mutagenic call [2] of the same compound?
The mutagenic call was “inactive; negative”.

And the mutagenic call (Test System: AMES SALMONELLA TYPHIMURIUM, Strain/Indicator: TA98, Metabolic Activation: HAMSTER, LIVER, S-9, AROCLOR 1254, Method: PREINCUBATION)?
The mutagenic call was “inactive; negative”.

What about the mutagenic call (Test System: AMES SALMONELLA TYPHIMURIUM, Strain/Indicator: TA98, Metabolic Activation: NONE, Method: PREINCUBATION) of the same compound?
The mutagenic call was “inactive; negative”.

What about the mutagenic call [3] of the same compound?
Its mutagenic call is “inactive; negative”.

What about the mutagenic call (Test System: AMES SALMONELLA TYPHIMURIUM, Strain/Indicator: TA98, Metabolic Activation: RAT, LIVER, S-9, AROCLOR 1254, Method: PREINCUBATION) of the same compound?
The mutagenic call was “inactive; negative”.

What about the mutagenic call [4] of the same compound?
The mutagenic call was “inactive; negative”.

What about the mutagenic call (Test System: AMES SALMONELLA TYPHIMURIUM, Strain/Indicator: TA100, Metabolic Activation: HAMSTER, LIVER, S-9, AROCLOR 1254, Method: PREINCUBATION) of the same compound?
The mutagenic call was “inactive; negative”.

And the mutagenic call [11]?
Its mutagenic call is “inactive; negative”.

And the mutagenic call [5]?
Its mutagenic call is “inactive; negative”.

What about the mutagenic call (Test System: AMES SALMONELLA TYPHIMURIUM, Strain/Indicator: TA100, Metabolic Activation: RAT, LIVER, S-9, AROCLOR 1254, Method: PREINCUBATION) of the same compound?
Its mutagenic call is “inactive; negative”.

And the mutagenic call [6]?
The mutagenic call was “inactive; negative”.

What about the mutagenic call [7] of the same compound?
Its mutagenic call is “inactive; negative”.

What about the mutagenic call [8] of the same compound?
The mutagenic call was “inactive; negative”.

What about the mutagenic call (Test System: AMES SALMONELLA TYPHIMURIUM, Strain/Indicator: TA1535, Metabolic Activation: HAMSTER, LIVER, S-9, AROCLOR 1254, Method: PREINCUBATION) of the same compound?
The mutagenic call was “inactive; negative”.

And the mutagenic call (Test System: AMES SALMONELLA TYPHIMURIUM, Strain/Indicator: TA1535, Metabolic Activation: NONE, Method: PREINCUBATION)?
The mutagenic call was “inactive; negative”.

And the mutagenic call (Test System: AMES SALMONELLA TYPHIMURIUM, Strain/Indicator: TA1535, Metabolic Activation: RAT, LIVER, S-9, AROCLOR 1254, Method: PREINCUBATION)?
Its mutagenic call is “inactive; negative”.

What about the mutagenic call (Test System: AMES SALMONELLA TYPHIMURIUM, Strain/Indicator: TA1537, Metabolic Activation: HAMSTER, LIVER, S-9, AROCLOR 1254, Method: PREINCUBATION) of the same compound?
The mutagenic call was “inactive; negative”.

And the mutagenic call (Test System: AMES SALMONELLA TYPHIMURIUM, Strain/Indicator: TA1537, Metabolic Activation: NONE, Method: PREINCUBATION)?
Its mutagenic call is “inactive; negative”.

What about the mutagenic call (Test System: AMES SALMONELLA TYPHIMURIUM, Strain/Indicator: TA1537, Metabolic Activation: RAT, LIVER, S-9, AROCLOR 1254, Method: PREINCUBATION) of the same compound?
Its mutagenic call is “inactive; negative”.

What about the mutagenic call [9] of the same compound?
Its mutagenic call is “inactive; negative”.

What about the mutagenic call [10] of the same compound?
Its mutagenic call is “inactive; negative”.
